ChEMBL document CHEMBL3045512, “Synthesis of some novel triazoloquinazolines and triazinoquinazolines and their evaluation for anti-inflammatory activity” (Med Chem Res, 2012)

How the values were obtained:
[1] = system: Mus musculus; assay: Toxicity in Mus musculus albino (mouse) assessed as GPx activity per gram of Hb at 300 mg/kg, po for 10 days (Rvb =179.16 +/- 10.45 U/g Hb); type: organism-based; set-up: dose 300 mg/kg, route oral; conditions: in vivo, 240 h
[2] = system: Mus musculus; assay: Toxicity in Mus musculus albino (mouse) assessed as SOD activity per gram of Hb at 300 mg/kg, po for 10 days (reference value: 12.7+/- 2.08 U/g Hb); type: organism-based; set-up: dose 300 mg/kg, route oral; conditions: in vivo, 240 h
[3] = system: Mus musculus; assay: Toxicity in Mus musculus albino (mouse) assessed as GSH activity at 300 mg/kg, po for 10 days (reference value: 59.57 +/- 5.10 %); type: organism-based; set-up: dose 300 mg/kg, route oral; conditions: in vivo, 240 h
[4] = system: Mus musculus; assay: Toxicity in Mus musculus albino (mouse) assessed as serum TBARS level at 300 mg/kg, po for 10 days (reference value: 4.35 +/- 0.86 U/l); type: organism-based; set-up: dose 300 mg/kg, route oral; conditions: in vivo, 240 h
[5] = system: Mus musculus; assay: Toxicity in Mus musculus albino (mouse) assessed as serum LDH level at 300 mg/kg, po for 10 days (reference value: 217.84 +/- 13.36 U/l); type: organism-based; set-up: dose 300 mg/kg, route oral; conditions: in vivo, 240 h
[6] = system: Mus musculus; assay: Toxicity in Mus musculus albino (mouse) assessed as serum gamma-glutamyl transferase level at 300 mg/kg, po for 10 days (reference value: 4.43 +/- 0.31 U/l); type: organism-based; set-up: dose 300 mg/kg, route oral; conditions: in vivo, 240 h
[7] = system: Mus musculus; assay: Toxicity in Mus musculus albino (mouse) assessed as serum ALP level at 300 mg/kg, po for 10 days (reference value: 31.63 +/- 3.73 U/l); type: organism-based; set-up: dose 300 mg/kg, route oral; conditions: in vivo, 240 h
[8] = system: Mus musculus; assay: Toxicity in Mus musculus albino (mouse) assessed as serum SGPT level at 300 mg/kg, po for 10 days (reference value: 35.82 +/- 5.26 U/l); type: organism-based; set-up: dose 300 mg/kg, route oral; conditions: in vivo, 240 h
[9] = system: Mus musculus; assay: Toxicity in Mus musculus albino (mouse) assessed as serum SGOT level at 300 mg/kg, po for 10 days (reference value: 9.74 +/- 1.73 U/l); type: organism-based; set-up: dose 300 mg/kg, route oral; conditions: in vivo, 240 h
[10] = system: Mus musculus; assay: Toxicity in Mus musculus albino (mouse) assessed as bluish toe at 80 to 375 mg/kg, ip; type: organism-based; set-up: dose 80-375 mg/kg, route intraperitoneal; conditions: in vivo
[11] = system: Mus musculus; assay: Toxicity in Mus musculus albino (mouse) assessed as bluish skin at 80 to 375 mg/kg, ip; type: organism-based; set-up: dose 80-375 mg/kg, route intraperitoneal; conditions: in vivo
[12] = system: Mus musculus; assay: Toxicity in Mus musculus albino (mouse) assessed as brownish eye mucus at 80 to 375 mg/kg, ip; type: organism-based; set-up: dose 80-375 mg/kg, route intraperitoneal; conditions: in vivo
[13] = system: Mus musculus; assay: Toxicity in Mus musculus albino (mouse) assessed as tremor inhind limbs at 80 to 375 mg/kg, ip; type: organism-based, Limb; set-up: dose 80-375 mg/kg, route intraperitoneal; conditions: in vivo
[14] = system: Mus musculus; assay: Toxicity in Mus musculus albino (mouse) assessed as general depression at 80 to 375 mg/kg, ip; type: organism-based; set-up: dose 80-375 mg/kg, route intraperitoneal; conditions: in vivo
[15] = system: Mus musculus; assay: Toxicity in Mus musculus albino (mouse) assessed as rapid respiration at 80 to 375 mg/kg, ip; type: organism-based; set-up: dose 80-375 mg/kg, route intraperitoneal; conditions: in vivo
[16] = system: Mus musculus; assay: Toxicity in Mus musculus albino (mouse) assessed as increase in heart rate at 80 to 375 mg/kg, ip; type: organism-based; set-up: dose 80-375 mg/kg, route intraperitoneal; conditions: in vivo
[17] = system: Mus musculus; assay: Toxicity in ip dosed Mus musculus albino (mouse) assessed as mortality measured per gram body weight; type: organism-based; conditions: in vivo
[18] = system: Mus musculus; assay: Anti-inflammatory activity in Mus musculus albino (mouse) assessed as inhibition of formalin-induced paw swelling at 30 mg/kg, po administered 30 min prior formalin challenge measured after 120 min post challenge (reference value: 9.83 +/- 0.071 mm/min); type: functional
[19] = system: Mus musculus; assay: Anti-inflammatory activity in Mus musculus albino (mouse) assessed as inhibition of formalin-induced paw swelling at 30 mg/kg, po administered 30 min prior formalin challenge measured after 90 min post challenge (reference value: 9.5 +/- 0.04 mm/min); type: functional
[20] = system: Mus musculus; assay: Anti-inflammatory activity in Mus musculus albino (mouse) assessed as inhibition of formalin-induced paw swelling at 30 mg/kg, po administered 30 min prior formalin challenge measured after 60 min post challenge (reference value: 9.73 +/- 0.06 mm/min); type: functional
[21] = system: Mus musculus; assay: Anti-inflammatory activity in Mus musculus albino (mouse) assessed as inhibition of formalin-induced paw swelling at 30 mg/kg, po administered 30 min prior formalin challenge measured after 30 min post challenge (reference value: 9.46 +/- 0.035 mm/min); type: functional
[22] = system: Mus musculus; assay: Toxicity in Mus musculus albino (mouse) assessed as serum gamma-glutamyl transferase level at 600 mg/kg, po for 10 days (reference value: 4.43 +/- 0.31 U/l); type: organism-based; set-up: dose 600 mg/kg, route oral; conditions: in vivo, 240 h
[23] = system: Mus musculus; assay: Toxicity in Mus musculus albino (mouse) assessed as serum ALP level at 600 mg/kg, po for 10 days (reference value: 31.63 +/- 3.73 U/l); type: organism-based; set-up: dose 600 mg/kg, route oral; conditions: in vivo, 240 h
[24] = system: Mus musculus; assay: Toxicity in Mus musculus albino (mouse) assessed as serum SGPT level at 600 mg/kg, po for 10 days (reference value: 35.82 +/- 5.26 U/l); type: organism-based; set-up: dose 600 mg/kg, route oral; conditions: in vivo, 240 h
[25] = system: Mus musculus; assay: Toxicity in Mus musculus albino (mouse) assessed as serum SGOT level at 600 mg/kg, po for 10 days (reference value: 9.74 +/- 1.73 U/l); type: organism-based; set-up: dose 600 mg/kg, route oral; conditions: in vivo, 240 h
[26] = system: Mus musculus; assay: Anti-inflammatory activity in Mus musculus albino (mouse) assessed as inhibition of formalin-induced paw swelling at 60 mg/kg, po administered 30 min prior formalin challenge measured after 120 min post challenge (reference value: 9.83 +/- 0.071 mm/min); type: functional
[27] = system: Mus musculus; assay: Anti-inflammatory activity in Mus musculus albino (mouse) assessed as inhibition of formalin-induced paw swelling at 60 mg/kg, po administered 30 min prior formalin challenge measured after 90 min post challenge (reference value: 9.5 +/- 0.04 mm/min); type: functional
[28] = system: Mus musculus; assay: Anti-inflammatory activity in Mus musculus albino (mouse) assessed as inhibition of formalin-induced paw swelling at 60 mg/kg, po administered 30 min prior formalin challenge measured after 60 min post challenge (reference value: 9.73 +/- 0.06 mm/min); type: functional
[29] = system: Mus musculus; assay: Anti-inflammatory activity in Mus musculus albino (mouse) assessed as inhibition of formalin-induced paw swelling at 60 mg/kg, po administered 30 min prior formalin challenge measured after 30 min post challenge (reference value: 9.46 +/- 0.035 mm/min); type: functional
[30] = system: Mus musculus; assay: Toxicity in Mus musculus albino (mouse) assessed as GPx activity per gram of Hb at 600 mg/kg, po for 10 days (Rvb =179.16 +/- 10.45 U/g Hb); type: organism-based; set-up: dose 600 mg/kg, route oral; conditions: in vivo, 240 h
[31] = system: Mus musculus; assay: Toxicity in Mus musculus albino (mouse) assessed as SOD activity per gram of Hb at 600 mg/kg, po for 10 days (reference value: 12.7 +/- 2.08 U/g Hb); type: organism-based; set-up: dose 600 mg/kg, route oral; conditions: in vivo, 240 h
[32] = system: Mus musculus; assay: Toxicity in Mus musculus albino (mouse) assessed as GSH activity at 600 mg/kg, po for 10 days (reference value: 59.57 +/- 5.10 %); type: organism-based; set-up: dose 600 mg/kg, route oral; conditions: in vivo, 240 h
[33] = system: Mus musculus; assay: Toxicity in Mus musculus albino (mouse) assessed as serum TBARS level at 600 mg/kg, po for 10 days (reference value: 4.35 +/- 0.86 U/l); type: organism-based; set-up: dose 600 mg/kg, route oral; conditions: in vivo, 240 h
[34] = system: Mus musculus; assay: Toxicity in Mus musculus albino (mouse) assessed as serum LDH level at 600 mg/kg, po for 10 days (reference value: 217.84 +/- 13.36 U/l); type: organism-based; set-up: dose 600 mg/kg, route oral; conditions: in vivo, 240 h

What does the source list for `COc1ccccc1/C=N/n1c(Nc2ccc(S(N)(=O)=O)cc2)nc2ccccc2c1=O`?
Activity [1]: 183 U/g Hb; Activity [2]: 13.1 U/g Hb; Activity [3]: 61.45%; Activity [4]: 3.97 nmol/mL; Activity [5]: 205.65 U/L; Activity [6]: 4.12 U/L; Activity [7]: 30.01 U/L; Activity [8]: 33.65 U/L; Activity [9]: 10.7 U/L; Activity [10]: Toxic; Activity [11]: Toxic; Activity [12]: Toxic; Activity [13]: Toxic; Activity [14]: Toxic; Activity [15]: Toxic; Activity [16]: Toxic; Activity [17]: 222.25 millimeter/min; Activity [18]: 6.5 millimeter/min; Activity [19]: 7.19 millimeter/min; Activity [20]: 7.78 millimeter/min; Activity [21]: 7.76 millimeter/min

With `COc1ccc2c(c1)c(CC(=O)O)c(C)n2C(=O)c1ccc(Cl)cc1` [INDOMETHACIN] as the compound, how does the Activity [22] read?
Its Activity is 9.45 U/L.

What about the Activity [23] of the same compound?
Its Activity is 76.41 U/L.

What about the Activity [24] of the same compound?
The Activity was 65.37 U/L.

What about the Activity [25] of the same compound?
The Activity was 24.51 U/L.

And the Activity [26]?
The Activity was 6.98 millimeter/min.

What about the Activity [27] of the same compound?
The Activity was 7.2 millimeter/min.

What about the Activity [28] of the same compound?
The Activity was 7.19 millimeter/min.

What about the Activity [29] of the same compound?
The Activity was 6.5 millimeter/min.

And the Activity [30]?
The Activity was 134 U/g Hb.

What about the Activity [31] of the same compound?
Its Activity is 7.45 U/g Hb.

What about the Activity [32] of the same compound?
Its Activity is 45.32%.

What about the Activity [33] of the same compound?
Its Activity is 7.45 nmol/mL.

What about the Activity [34] of the same compound?
The Activity was 326.8 U/L.
